Experimental data from patent US6864086B2, “Nitric oxide-scavenging system for culturing oocytes, embryos, or other cells” (Board of Supervisors of Louisiana State University and …, priority 1998, dated 2005).
Values joined by “and” are separate entries in the source; they are usually repeats but may differ in a detail not shown here. Equal entries are not always repeated.

Test system: bovine IVF-oocytes
Assay: Example 8: Hb (1 μg/ml) in mBECM co-culture, oocytes collected in different months, pre-hatching development
Type: cell-based
Set-up: key to Least square mean ± SE of embryos developed to 8-cell / Least square mean ± SE of embryos developed to 16-cell / Least square mean ± SE of embryos developed to Morula / Least square mean ± SE of embryos developed to Blastocyst / Least square mean ± SE of embryos developed to 2-cell: mean of per-embryo scores: 1 = developed to stage, 0 = not developed
Protocol: The basic medium used for maturation of oocytes was tissue culture medium (TCM)-199 with Earle's salts, buffered with 25 mM HEPES (Gibco BRL, Grand Island, N.Y.) and supplemented with 10% (v/v) heat-inactivated fetal bovine serum (FBS; Hyclone Laboratories, Logan, Utah), 1 μg/ml estradiol-17β (NOBL Laboratories, Sioux Center, Iowa), 3 μg/ml bovine FSH (NOBL Laboratories), 6 μg/ml bovine LH (NOBL Laboratories), and 25 μg/ml gentamycin (Sigma Chemical Co., St. Louis, Mo.). The basic medium used for treatment of spermatozoa and fertilization of oocytes was a modified Tyrode's medium (J. Parrish et al., Capacitation of bovine sperm by heparin. Biol. Reprod. 38:1171-1180 (1988)), supplemented with 0.25 mM sodium pyruvate (Gibco BRL), 6 mg/ml fatty acid (FA)-free BSA (No. A-6003, Sigma), 15 μg/ml calcium heparin from porcine intestinal mucosa (183 USP/mg; H-8398, Sigma), and 25 μg/ml gentamycin. Modified bovine embryo culture medium (mBECM) containing 10 μM β-mercaptoethanol was used for culture of embryos, as described in J. Lim et al., “Roles of growth factors in the development of bovine embryos fertilized in vitro and cultured singly in a defined medium,” Reprod. Fertil. Dev., 8:1199-1205 (1996). mBECM supplemented with 10% (v/v) FBS was used for co-culturing inseminated oocytes with CGC. Osmolarity of the medium was maintained within the range of 265-290 mOsm.
All cumulus-oocyte complexes (COC) were collected in Madison, Wis. (BOMED, Inc.) and were shipped in 2 ml of maturation medium in a battery powered incubator via overnight express mail service. Oocytes matured during transit and arrived within 24 h after exposure to maturation medium, pre-equilibrated at 39° C. in 5% CO2 in air. At 22 to 24 h after exposure to the medium, the COCs were inseminated in vitro as described in J. Lim et al., “Intracytoplasmic glutathione concentration and the role of β-mercaptoethanol in preimplantation development of bovine embryos,” Theriogenology, 46:429-439 (1996). At 18 h post-insemination, COCs were cultured in groups (28-40 embryos) in a 4-well multidish (Nunc, Roskilde, Denmark) containing 0.8-ml of mBECM. Embryos were dislodged from CGC at 36 to 48 h post-insemination.
In Example 8, bovine follicular oocytes were collected from November 1996 to May 1997, and matured and fertilized in culture. (Oocytes collected during summer and early fall were not used in this study, to avoid interference from environmental heat stress on in vitro survival of embryos.) IVF embryos were collected at 18 h post-insemination and cultured in mBECM supplemented with FBS (10%, v/v), to which 0 or 1 μg/ml Hb (from bovine, mainly methemoglobin, H-2500, Sigma Co.) was added. Development of embryos to the 2-cell, 8-cell, 16-cell, morula, and blastocyst stages was monitored 48, 60, 120, 144 and 192 h post-insemination, respectively. As a supplemental experiment, some blastocysts in each treatment (20 or 28) were randomly collected, and the cell number of the blastocysts was counted by use of Hoechst stain 33342 and a fluorescent microscope (Diaphod, Nikkon, Tokyo, Japan). This experiment used 1675 embryos in 25 replicates, with IVF embryos randomly allotted among treatments.
Embryos developed to the 2-cell, 8-cell, 16-cell, morula, and blastocyst stages at the pertinent observation times were individually scored ‘1’ (developed). Embryos that had not developed to these stages at the same times were scored ‘0’ (non-developed). Sums of the scores at each stage of development were evaluated by analysis of variance using a general linear model (PROC-GLM) in the SAS statistical programming package (1991). In Example 8, the combined effects of Hb addition and month of oocyte collection were first examined in a 2×7 factorial arrangement. Overall differences in embryonic development in Hb-free and Hb-containing culture systems were further evaluated. […] Differences were regarded as statistically significant where P values were less than 0.05.

For hemoglobin [Hb], the “Least square mean ± SE of embryos developed to 2-cell” value (“Least square mean ± SE … to 2-cell” below) (April) was 0.70 ± 0.03, the “Least square mean ± SE of embryos developed to 8-cell” value (“Least square mean ± SE … to 8-cell” below) (April) was 0.48 ± 0.03 and the “Least square mean ± SE of embryos developed to 16-cell” value (“Least square mean ± SE … to 16-cell” below) (April) was 0.39 ± 0.03. For the same substance, the “Least square mean ± SE of embryos developed to Blastocyst” value (“Least square mean ± SE … to Blastocyst” for short) (April) was 0.25 ± 0.03, the “Least square mean ± SE of embryos developed to Morula” value (“Least square mean ± SE … to Morula” for short) (April) was 0.32 ± 0.03 and the “Least square mean ± SE … to 2-cell” value (December) was 0.79 ± 0.05. The “Least square mean ± SE … to 8-cell” value (December) was 0.59 ± 0.05, the “Least square mean ± SE … to 16-cell” value (December) was 0.53 ± 0.05 and the “Least square mean ± SE … to Blastocyst” value (December) was 0.36 ± 0.05. For the same substance, the “Least square mean ± SE … to Morula” value (December) was 0.41 ± 0.05, the “Least square mean ± SE … to 2-cell” value (February) was 0.77 ± 0.04 and the “Least square mean ± SE … to 8-cell” value (February) was 0.53 ± 0.04. The “Least square mean ± SE … to 16-cell” value (February) was 0.44 ± 0.04, the “Least square mean ± SE … to Blastocyst” value (February) was 0.35 ± 0.04 and the “Least square mean ± SE … to Morula” value (February) was 0.40 ± 0.04. For the same substance, the “Least square mean ± SE … to 2-cell” value (January) was 0.70 ± 0.04, the “Least square mean ± SE … to 8-cell” value (January) was 0.45 ± 0.04 and the “Least square mean ± SE … to 16-cell” value (January) was 0.42 ± 0.04. For the same substance, the “Least square mean ± SE … to Blastocyst” value (January) was 0.28 ± 0.04, the “Least square mean ± SE … to Morula” value (January) was 0.32 ± 0.04 and the “Least square mean ± SE … to 2-cell” value (March) was 0.58 ± 0.05. The “Least square mean ± SE … to 8-cell” value (March) was 0.40 ± 0.06, the “Least square mean ± SE … to 16-cell” value (March) was 0.31 ± 0.06 and the “Least square mean ± SE … to Blastocyst” value (March) was 0.20 ± 0.05. For the same substance, the “Least square mean ± SE … to Morula” value (March) was 0.23 ± 0.06, the “Least square mean ± SE … to 2-cell” value (May) was 0.70 ± 0.05 and the “Least square mean ± SE … to 8-cell” value (May) was 0.60 ± 0.05. For the same substance, the “Least square mean ± SE … to 16-cell” value (May) was 0.49 ± 0.05, the “Least square mean ± SE … to Blastocyst” value (May) was 0.40 ± 0.05 and the “Least square mean ± SE … to Morula” value (May) was 0.44 ± 0.05. For the same substance, the “Least square mean ± SE … to 2-cell” value (November) was 0.89 ± 0.07, the “Least square mean ± SE … to 8-cell” value (November) was 0.71 ± 0.08 and the “Least square mean ± SE … to 16-cell” value (November) was 0.60 ± 0.08. The “Least square mean ± SE … to Blastocyst” value (November) was 0.34 ± 0.07, the “Least square mean ± SE … to Morula” value (November) was 0.57 ± 0.08 and the “formation of blastocysts (least square mean), range over months” value (November-May, control 0.17-0.32) was 0.20-0.4. The “formation of morulae (least square mean), range over months” value (November-May, control 0.2-0.37) was 0.23-0.57, the “Number of embryos developed to 2-cell” value (all months overall, 831 embryos cultured, 48 h) was 601 and the “Number of embryos developed to 8-cell” value (all months overall, 831 embryos cultured, 60 h) was 427. For the same substance, the “Number of embryos developed to 16-cell” value (all months overall, 831 embryos cultured, 120 h) was 358, the “Number of embryos developed to Morula” value (all months overall, 831 embryos cultured, 144 h) was 300 and the “Number of embryos developed to Blastocyst” value (all months overall, 831 embryos cultured, 192 h) was 251. The “Least square mean ± SE … to 2-cell” value (all months overall, 48 h) was 0.73 ± 0.02, the “Least square mean ± SE … to 8-cell” value (all months overall, 60 h) was 0.54 and 0.54 ± 0.02 and the “Least square mean ± SE … to 16-cell” value (all months overall, 120 h) was 0.45 and 0.45 ± 0.02. For the same substance, the “Least square mean ± SE … to Morula” value (all months overall, 144 h) was 0.39 and 0.39 ± 0.02, the “Least square mean ± SE … to Blastocyst” value (all months overall, 192 h) was 0.31 and 0.31±0.02 and the “effect on development to the 2-cell stage” value (all months overall, P>0.73) was “no significant effect”.
